We go through 1 molecule from publication PMC5213423, “Identification of a Drug Targeting an Intrinsically Disordered Protein Involved in Pancreatic Adenocarcinoma” (Scientific Reports, 2017).

What is called viability is a read-out of living cells in per cent, often relative to untreated cells. By Kd is commonly meant the equilibrium constant for the complex coming apart.

The test system of test [1] is MiaPaCa-2 cells. The test is described as follows: Colony formation in soft agar (clonogenicity). It counts as cell-based, human. The note with it: 10 μM compound. The procedure:
Colony formation assay was performed in order to measure the in vitro survival ability of a single cell to grow into a colony in an anchorage-independent growth environment. Briefly, after treating MiaPaCa-2 cells with either the compounds or DMSO (as control) for 24 and 48 h, they were seeded in DMEM complete media at a density of 7 × 10^3 cells in 6-well plates containing a top layer of 0.7% agar and a bottom layer of 1% agar. Plates were incubated at 37 °C for 3 to 4 weeks and then stained with 0.2% crystal violet. […] Comparisons of treatment outcome were tested for statistical significance by using the t-test.

For test [2], the system named is primary murine PDAC cell line NUPR1 KO. Briefly: Cell viability assay, primary murine PDAC cells, NUPR1 knocked-out (KO). It counts as cell-based, mouse. The note with it: 6 days. The procedure: (§1) MiaPaCa-2 cells were obtained from ATCC (Manassas, VA) and maintained in Dulbecco’s Modified Eagle’s Medium (DMEM) (Invitrogen, Carlsbad, CA) supplemented with 10% FBS (Foetal Bovine Serum) at 37 °C with 5% CO2. MiaPaCa-2 cells were authenticated using Short Tandem Repeat analysis (LGC Standards GmbH, Wesel, Germany). […]in reagent (Polyplus-transfection, Illkirch, France) was used to perform siRNA transfections according to the manufacturer’s protocol. Scrambled siRNA targeting no known gene sequence was used as negative control. The sequence of NUPR1-specific siRNA-nupr1 r([…])dTdT was previously reported. Knock-out cells were established in the laboratory from a mice model of pancreatic cancer, known as Pdx1-Cre-Kras^G12D/INK4^flox/flox and for those nupr1 was deleted. These cells have been supplied with DMEM (4.5 g/L) and Glutamax (Life Technologies, Carlsbad, CA), supplemented with 10% of FBS.

The target of a further test is T1, NUPR1/MSL1 interaction (Homo sapiens, UniProt O60356).
T1 construct: expressed in transfected cells; host or cells: MiaPaCa-2 (human pancreatic cancer cells)
T1 sequence (O60356 1-82): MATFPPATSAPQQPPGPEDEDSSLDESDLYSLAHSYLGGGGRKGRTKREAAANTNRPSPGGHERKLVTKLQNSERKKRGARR
Briefly: Proximity ligation assay (PLA) of NUPR1-MSL1 interaction after Oxaliplatin-induced DNA damage. It counts as cell-based. The note with it: 1 to 20 μM compound, Oxaliplatin 10 μM, 24 h. As for the experimental part:
MiaPaCa-2 cells were seeded on coverslips and transfected with 300 ng of DNA (NUPR1-Flag and MSL1-V5) using Fugene HDTM transfection reagent (Roche, Meylan, France). […] Cells were washed twice in PBS, fixed, permeabilized and saturated for 45 min before immunostaining with DuoLink kit (Olink Bioscience, Uppsala, Sweden) following the manufacturer’s protocol. Image acquisition was carried out on a Nikon Eclipse 90i fluorescence microscope (Nikon Instruments, Amsterdam, Netherlands). Images at 40x magnification were analyzed with ImageJ to count the number of red dots which represent NUPR1/MSL1 binding. The reduction in the number of red fluorescent dots is proportional to the inhibition of MSL1-NUPR1 interaction by Compound-15.

Test [3] has as its system human PDAC-derived xenografts (MiaPaCa-2). Briefly: Subcutaneous MiaPaCa-2 xenograft in NMRI-Nude mice. It counts as in vivo. As to conditions: for Tumor volume: start 400 mm^3. As for the experimental part:
NMRI-Foxn1^nu/Foxn1^nu mice were provided by Janvier Laboratories (Le Genest-Saint-Isle, France). Mice were kept within the Experimental Animal House of the Centre de Cancérologie de Marseille (CRCM) pôle Luminy. All experimental protocols were carried out in accordance with nationally approved guidelines for the treatment of laboratory animals. All experimental procedures on animals were approved by the Comité d’éthique de Marseille numéro 14. Ten millions MiaPaCa-2 cells were inoculated subcutaneously and mice were separated into 3 groups of 6 subjects each. Mice were treated daily with either physiologic serum, 5 mg/kg or 10 mg/kg of the compound when the tumor volume reached approximately 400 mm^3. Every 5 days, the weight and the tumors volumes were measured. Mice were sacrificed after 35 days of treatment.

Test [4] concerns primary murine PDAC cell line WT. The test is described as follows: Cell viability assay, primary murine PDAC cells, NUPR1 wild-type (WT). As to conditions: 6 days. It counts as cell-based, mouse. The procedure: as §1
Test [5] deals with MiaPaCa-2 cells. The test is described as follows: Wound healing (cell migration) assay. The note with it: 10 μM, after 48 h. It counts as cell-based, human.
Protocol: Cells (10000 cells/well) were seeded in 24-well plates and grown to confluence. […] Either fresh medium with 10 μM of the corresponding compound were added or DMSO (as control). Cell migration to the wounded region was observed using an automated fluorescence inverted microscope Leica DMI 6000B with MetaMorph MM AF analysis software (Leica Microsystems, Wetzlar, Germany). Images were captured at 0, 24 and 48 h to monitor the wound healing process. The wound areas were measured using ImageJ software (NIH, Bethesda, MD). Comparisons of treatment outcome were tested for statistical significance by using the t-test. Statistical significance was assumed at a p-value lower than 0.05.
Test [6] relates to MiaPaCa-2 cells. The test is described as follows: Cell viability assay (CellTiter-Blue), MiaPaCa-2. The note with it: Homo sapiens, MIA PaCa-2, 144 h, read-out: Cell viability. (In general: The colour change of resazurin is a common sign of viable cells or microbes.)
Protocol: Cells (10000 cells/well) were plated in 96-well plates with DMEM. Twenty-four hours later, the media were supplemented with 10 μM of Compound and were incubated for another additional six days. Each experiment was performed in duplicate and repeated at least three times. Cell viability was estimated after addition of the CellTiter-Blue viability reagent (Promega, Madrid, Spain) for 1 h according to the protocol provided by the supplier. Cell viability was measured on day 6 and normalized regarding untreated cells rates. Statistical significance was assumed at a p-value lower than 0.05.
The target of test [7] is T2, NUPR1 (Homo sapiens, UniProt O60356).
T2 construct: made in house; host or cells: E. coli
T2 sequence (O60356 1-82): T1 sequence (O60356 1-82)
Briefly: Isothermal titration calorimetry (ITC) of compound binding to NUPR1. As to conditions: 25 °C. As for the experimental part: Ligand binding to NUPR1 was determined with a high sensitivity isothermal titration calorimeter Auto-iTC200 (MicroCal–Malvern Instruments, Malvern UK). Protein samples and reference solutions were properly degassed and carefully loaded into the calorimetric cells to avoid bubble formation during stirring. Experiments were performed with freshly prepared buffer-exchanged protein solutions, at 25 °C in 20 mM sodium phosphate pH 7. NUPR1 20 μM solution in the calorimetric cell was titrated with 300–400 μM compound solution. A sequence of 19 injections of 2 μL volume was programmed with a stirring speed of 1000 rpm. The heat evolved after each ligand injection was obtained from the integral of the calorimetric signal. The heat due to the binding reaction was obtained as the difference between the reaction heat and the corresponding heat of dilution, the latter estimated as a constant value throughout the experiment, and included as an adjustable parameter in the analysis. Control experiments (compound injected into buffer) were performed under the same experimental conditions. The association constant (Ka) and the enthalpy change (ΔH) of the binding reaction were obtained through non-linear regression of experimental data to a model for a protein with a single ligand binding site. Experiments were performed in replicates and data were analyzed using in-house developed software implemented in Origin 7 (OriginLab, Northampton, MA).
A general note: Isothermal titration calorimetry measures the heat released or taken up as one component is titrated into another.

Test [8] deals with MiaPaCa-2 cells. Briefly: Real-time iCELLigence impedance proliferation assay. It counts as cell-based, human. As to conditions: 10 μM Compound-15 vs 60 nM Gemcitabine, 4 μM Oxaliplatin. The procedure: Cell proliferation was monitored in real-time using the […] system E-Plate (ACEA Biosciences, San Diego, CA). Forty thousand MiaPaCa-2 cells were seeded in each well with fresh DMEM. […] Cells were incubated for another 3 days. The impedance value of each well was automatically monitored by the […] system for 3 days and expressed as a CI (cell index) value.

The target of test [9] is T2, NUPR1. Briefly: 2D 1H-15N HSQC NMR cross-peak broadening of NUPR1 upon compound addition. It counts as binding. The note with it: NUPR1 100 μM : compound 400 μM, 25 °C, pH 4.5. The procedure:
The NMR data were acquired at 25 °C, pH 4.5 (acetate buffer), on a Bruker Avance DRX-500 spectrometer equipped with a triple-resonance probe and z-gradients. All spectra were referenced to external TSP.
The 2D ^1H-^15N heteronuclear single-quantum coherence (HSQC) spectra[42] were acquired in the phase sensitive mode for isolated ^15N-labelled NUPR1 (100 μM) or ^15N-labelled NUPR1 (100 μM) in the presence of the corresponding compound (400 μM). […] Frequency discrimination in the indirect dimensions was achieved by using the echo/antiecho-TPPI method. […] The carrier of the ^1H dimension was set at 8.00 ppm, and that of ^15N at 120 ppm. The spectral widths used were 10 and 35 ppm in the ^1H and ^15N dimensions, respectively. Water signal was suppressed with the WATERGATE sequence. Data were zero-filled to double the number of original points in both dimensions, apodized with shifted squared sine-bell functions in the two dimensions and Fourier transformed with the program TopSpin 1.2. Assignments were taken from those previously reported. The intensity of the signals from each row in the HSQC spectra was measured by using TopSpin 2.1 taking into account, as an internal reference, the intensity of the last residue of NUPR1. Only differences in intensity of a particular residue between spectra of the complex (NUPR1:Compound) and that of isolated NUPR1 larger than 10%, were considered significant.

Structures can show the parent of a compound that is named as a salt.

On to `CN1CCN(CCCN2c3ccccc3Sc3ccc(C(F)(F)F)cc32)CC1` [Compound-15, Trifluoperazine dihydrochloride], for which, in the test on MiaPaCa-2 cells [1], the Colony formation result is on record as “completely inhibited colony formation”. For the same molecule, the viability at 10 µM in test [2] (Mus musculus, 144 h, NUPR1 KO murine cells) came out at 72%; in test [4] (Mus musculus, 144 h, WT murine cells), 35%; with MiaPaCa-2 cells [6] it was 26 ± 7%. This molecule displayed an NUPR1-independent killing effect in test [2] (from KO cell viability, 10 μM) of approximately 28%. Also, the “NUPR1 and MSL1 interaction (PLA red dots)” value on NUPR1/MSL1 interaction is “interfered in the NUPR1-MSL1 interaction”. Moreover, in test [3] (5 mg/kg daily, two weeks), the “Tumor volume increase compared to the control” value was 50%. Moreover, the Tumor volume in [3] (5 mg/kg daily, two weeks) is recorded as 767 ± 196 mm^3; in test [3] (10 mg/kg daily, two weeks) it was 558 ± 152 mm^3. In [3] (10 mg/kg daily, up to 4 weeks), the Tumor growth entry was “rapidly, and almost completely, stopped”. The NUPR1-dependent effect entry in [4] (difference WT vs KO viability, 10 μM) is “around 37%”. Also, the “Distance migrated compared to Compound-free cells” value with MiaPaCa-2 cells [5] is recorded as 25%. This molecule also yielded a Kd at NUPR1 [7] (20 mM sodium phosphate pH 7, relative error is 20%) of 5.2 µM. Further, the “ΔG (Gibbs energy of binding)” value on NUPR1 [7] (pH 7) was -7.2 kcal/mol. The ΔH of binding at NUPR1 [7] (pH 7) was -1.1 kcal/mol. Besides, on NUPR1 [7] (pH 7), the “−TΔS of binding” value is -6.1 kcal/mol. Also, in the test with MiaPaCa-2 cells [8], the “Growth arrest in real-time proliferation compared with Oxaliplatin or Gemcitabine” value is “stronger growth-arrest”. For the same molecule, the “Residues of NUPR1 with NMR-cross-peak broadening affected by binding” value at NUPR1 [9] is given as “Ala33; Thr68”.
